Where “and” joins values, the source holds several entries; their conditions need not be identical. Identical values can stand only once. Like-named read-outs stand apart in the source and are kept apart here.
How the values were obtained:
OCI-Ly3 cells = assay: CellTiter-Glo ATP viability; assay type: cell-based, human
Experimental: Cell proliferation, viability, and apoptosis assays. […]
Fluorescent Intensity (MFI) was analyzed by FlowJo (version 10.8.0, BD). CellTiter-glo luminescence assay (Promega, Cat# G7570) was used to quantify ATP levels as a surrogate marker of metabolic viability in DLBCL cells treated with compounds for 6-8 days. […]
The percentages of cells in early and late apoptosis were combined for quantification. For CellTrace Violet, CellTiter-glo, and Annexin V apoptosis assays, cell were cultured in media with 50% of the usual serum. […]

[1] = In vivo pharmacokinetics, plasma LC-MS/MS
Experimental: Pharmacokinetic and cytochrome P450 inhibition studies. Studies were performed with the assistance of Touchstone Biosciences (Plymouth Meeting, Pennsylvania). For pharmacokinetic bioanalysis, male CD-1 mice were fasted overnight before being dosed with M1i-124 via oral gavage (20mg/kg), intraperitoneal injection in the lower right quadrant of the abdomen (20 mg/kg), or intravenous tail vein injection (5 mg/kg). All blood samples were taken via tail vein at 5, 15, and 30 minutes, and 1, 2, 4, 6, 8, and 24 hours after compound administration. The plasma concentration of the compound was determined using LC-MS/MS analysis. […]

O=S(=O)(NCc1ccc2c(c1)OCO2)c1ccc(Cc2ccc(S(=O)(=O)NCc3ccc4c(c3)OCO4)cc2)cc1 [M1i-124]
IC50 (OCI-Ly3 cells; Homo sapiens, OCI-Ly3 cells, read-out: 50% cytotoxic concentration): ~500 nM
Percent viability (ATP level) (OCI-Ly3 cells; OCI-Ly3, M1i-124 (µM) 0.02): 93.0259% and 81.697% and 95.3842% and 87.3232%
Percent viability (ATP level) (OCI-Ly3 cells; OCI-Ly3, M1i-124 (µM) 0.05): 107.435% and 78.839% and 101.939% and 104.596%
Percent viability (ATP level) (OCI-Ly3 cells; OCI-Ly3, M1i-124 (µM) 0.1): 97.8481% and 79.4097% and 92.5817% and 82.7797%
Percent viability (ATP level) (OCI-Ly3 cells; OCI-Ly3, M1i-124 (µM) 0.2): 93.5879% and 72.4634% and 88.6927% and 76.6947%
Percent viability (ATP level) (OCI-Ly3 cells; OCI-Ly3, M1i-124 (µM) 5): 38.3426% and 24.1881% and 19.3497% and 28.4648%
viability of OCI-Ly3 cells (OCI-Ly3 cells; result in words): dose-dependent decrease in viability
Plasma concentration (IP) ([1]; IP, 0.083 hours): 658 ng/mL and 561 ng/mL
Plasma concentration (IP) ([1]; IP, 0.25 hours): 720 ng/mL and 607 ng/mL
Plasma concentration (IP) ([1]; IP, 0.5 hours): 775 ng/mL and 671 ng/mL
Plasma concentration (IP) ([1]; IP, 1 hours): 437 ng/mL and 307 ng/mL
Plasma concentration (IP) ([1]; IP, 2 hours): 242 ng/mL and 173 ng/mL
Plasma concentration (IP) ([1]; IP, 4 hours): 110 ng/mL and 86.5 ng/mL
Plasma concentration (IP) ([1]; IP, 6 hours): 59.4 ng/mL
Plasma concentration (IP) ([1]; IP, 8 hours): 38.1 ng/mL and 35.4 ng/mL
Plasma concentration (IP) ([1]; IP, 24 hours): 7.87 ng/mL
Plasma concentration (IV) ([1]; IV, 0.083 hours): 2080 ng/mL and 1440 ng/mL
Plasma concentration (IV) ([1]; IV, 0.25 hours): 1320 ng/mL and 1020 ng/mL
Plasma concentration (IV) ([1]; IV, 0.5 hours): 302 ng/mL
Plasma concentration (IV) ([1]; IV, 1 hours): 115 ng/mL and 152 ng/mL
Plasma concentration (IV) ([1]; IV, 2 hours): 30.6 ng/mL and 29 ng/mL
Plasma concentration (IV) ([1]; IV, 4 hours): 16.3 ng/mL
Plasma concentration (IV) ([1]; IV, 6 hours): 12.7 ng/mL and 16.3 ng/mL
Plasma concentration (IV) ([1]; IV, 8 hours): 12.6 ng/mL
Plasma concentration (IV) ([1]; IV, 24 hours): 2.97 ng/mL and 3.88 ng/mL
Plasma concentration (PO) ([1]; PO, 0.083 hours): 306 ng/mL and 267 ng/mL
Plasma concentration (PO) ([1]; PO, 0.25 hours): 56.5 ng/mL and 86.1 ng/mL
Plasma concentration (PO) ([1]; PO, 0.5 hours): 57.2 ng/mL
Plasma concentration (PO) ([1]; PO, 1 hours): 25.9 ng/mL and 21.8 ng/mL
Plasma concentration (PO) ([1]; PO, 2 hours): 14.7 ng/mL and 15.7 ng/mL
Plasma concentration (PO) ([1]; PO, 4 hours): 13.1 ng/mL
Plasma concentration (PO) ([1]; PO, 6 hours): 9.73 ng/mL and 11.5 ng/mL
Plasma concentration (PO) ([1]; PO, 8 hours): 8.44 ng/mL and 9.62 ng/mL
Plasma concentration (PO) ([1]; PO, 24 hours): 2.39 ng/mL and 2.74 ng/mL
concentration at 6 h ([1]; male, CD-1, mouse, in vivo, ip, 20 mg/kg, IP, 6 hours, read-out: Plasma concentration (IP)): 54.8 ng/mL
concentration at 24 h ([1]; male, CD-1, mouse, in vivo, ip, 20 mg/kg, IP, 24 hours, read-out: Plasma concentration (IP)): 7.17 ng/mL
concentration at 0.5 h ([1]; male, CD-1, mouse, in vivo, iv, 5 mg/kg, IV, 0.5 hours, read-out: Plasma concentration (IV)): 412 ng/mL
concentration at 4 h ([1]; male, CD-1, mouse, in vivo, iv, 5 mg/kg, IV, 4 hours, read-out: Plasma concentration (IV)): 20.4 ng/mL
concentration at 8 h ([1]; male, CD-1, mouse, in vivo, iv, 5 mg/kg, IV, 8 hours, read-out: Plasma concentration (IV)): 10.9 ng/mL
concentration at 0.5 h ([1]; male, CD-1, mouse, in vivo, po, 20 mg/kg, PO, 0.5 hours, read-out: Plasma concentration (PO)): 42.6 ng/mL
concentration at 4 h ([1]; male, CD-1, mouse, in vivo, po, 20 mg/kg, PO, 4 hours, read-out: Plasma concentration (PO)): 15.4 ng/mL
concentration at 0.083 h ([1]; male, CD-1, mouse, plasma, ip, 20 mg/kg, IP, 0.083 hours, read-out: Plasma concentration (IP)): 451 ng/mL
